The conditions of series [1]: compared to previously-known omeprazole form B; cited from earlier work.
Series [2] in a line: Stability testing of omeprazole samples under stress/accelerated aging, evaluated by absorbance (Ph Eur). The series is classed as physicochemical. Conditions: omeprazole form C obtained by the disclosed process; no numerical data printed.
Protocol: The stability of omeprazole samples was determined by a standard procedure for testing the substances in pharmaceutical industry (CPMP/ICH/2736/99). […] Determination of absorbance, measured according to Ph Eur method (PhEur 3 Suppl 2000), is used as the criterion for evaluation of the sample quality during stability testing.

Structures are written as SMILES.

In the case of `COc1ccc2[nH]c([S+]([O-])Cc3ncc(C)c(OC)c3C)nc2c1` (stereo not shown) [omeprazole form A, 5-methoxy-2-[[(4-methoxy-3,5-dimethyl-2-pyridinyl)methyl]sulfinyl]-1H-benzimidazole], in series [1], the hygroscopicity entry is reported as “better”, the photostability result is recorded as “better” and the thermodynamic stability entry is reported as “better”.
Consider `COc1ccc2[nH]c([S+]([O-])Cc3ncc(C)c(OC)c3C)nc2c1` (stereo not shown) [omeprazole form C, 5-methoxy-2-[[(4-methoxy-3,5-dimethyl-2-pyridinyl)methyl]sulfinyl]-1H-benzimidazole], for which the “stability according to the standard protocol for characterization of stability of a pharmaceutical active substance” value in series [2] is listed as “stable according to the standard protocol”.

The values are drawn from patent US7553856B2, “Crystalline form of omeprazole” (Lek Pharmaceuticals d.d., priority 2001, dated 2009).
